Read-outs that look alike come from different tables or passages of the source. A value given as a limit tells only on which side of the number the result lay.

The results in this text go back to patent US11254668B2, “Pyrazolo[1,5-A]pyrazin-4-yl and related derivatives” (Pfizer Inc., priority 2017, dated 2022).

Format in all cases: biochemical
One test deals with JAK3 (Homo sapiens (Human), UniProt P52333). The test is described as follows: JAK Caliper Enzyme Assay at 1 mM ATP, JAK3. The method, boiled down:
(§1)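 Recombinant human kinase domains phosphorylate a fluorescent synthetic peptide at 1 mM ATP, room temperature, with enzyme and time tuned for 20-30% conversion; EDTA-stopped. Product/substrate separated by microfluidic mobility shift; percent effect versus DMSO and positive controls fitted to IC50 (nM).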

A further test addresses JAK2 (Homo sapiens (Human), UniProt O60674). The test is described as follows: JAK Caliper Enzyme Assay at 1 mM ATP, JAK2. The method, boiled down:
(§2)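 Human recombinant kinase domain + fluorescently labelled synthetic peptide, 1 mM ATP, RT; enzyme level/time set for 20–30% phosphorylation. EDTA stop. LabChip separation, peak-height % conversion, % effect vs plate controls.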

Another test concerns the target TYK2 (Homo sapiens (Human), UniProt P29597). The test is described as follows: JAK Caliper Enzyme Assay at 1 mM ATP, TYK2. A digest of the protocol: as §2
The next test concerns the target JAK1 (Homo sapiens (Human), UniProt P23458). Description: JAK Caliper Enzyme Assay at 1 mM ATP, JAK1. A digest of the protocol: as §1

TYK2, sequence (P29597 897-1176): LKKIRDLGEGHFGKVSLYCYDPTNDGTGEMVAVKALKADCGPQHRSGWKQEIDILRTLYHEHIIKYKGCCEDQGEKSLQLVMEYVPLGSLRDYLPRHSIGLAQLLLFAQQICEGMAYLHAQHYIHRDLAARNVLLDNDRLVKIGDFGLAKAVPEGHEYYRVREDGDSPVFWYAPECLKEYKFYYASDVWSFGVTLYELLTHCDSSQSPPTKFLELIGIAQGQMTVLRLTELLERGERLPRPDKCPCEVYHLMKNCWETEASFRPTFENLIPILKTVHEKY
JAK3, sequence (P52333 822-1111): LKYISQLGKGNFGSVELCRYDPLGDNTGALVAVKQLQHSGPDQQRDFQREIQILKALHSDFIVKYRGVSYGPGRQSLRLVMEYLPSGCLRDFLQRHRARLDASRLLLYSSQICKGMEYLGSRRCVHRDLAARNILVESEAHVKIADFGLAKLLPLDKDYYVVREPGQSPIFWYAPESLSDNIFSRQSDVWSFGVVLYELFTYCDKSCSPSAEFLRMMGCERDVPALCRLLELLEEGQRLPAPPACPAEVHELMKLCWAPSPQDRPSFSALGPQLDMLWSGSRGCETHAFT
JAK1, sequence (P23458 875-1153): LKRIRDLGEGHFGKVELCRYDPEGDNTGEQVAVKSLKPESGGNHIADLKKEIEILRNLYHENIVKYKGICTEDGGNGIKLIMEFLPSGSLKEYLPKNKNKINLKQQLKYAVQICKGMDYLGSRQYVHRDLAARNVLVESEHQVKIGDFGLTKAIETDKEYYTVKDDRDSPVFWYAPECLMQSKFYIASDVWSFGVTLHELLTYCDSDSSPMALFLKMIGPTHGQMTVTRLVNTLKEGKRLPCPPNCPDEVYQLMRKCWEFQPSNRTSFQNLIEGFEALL
JAK2, sequence (O60674 849-1124): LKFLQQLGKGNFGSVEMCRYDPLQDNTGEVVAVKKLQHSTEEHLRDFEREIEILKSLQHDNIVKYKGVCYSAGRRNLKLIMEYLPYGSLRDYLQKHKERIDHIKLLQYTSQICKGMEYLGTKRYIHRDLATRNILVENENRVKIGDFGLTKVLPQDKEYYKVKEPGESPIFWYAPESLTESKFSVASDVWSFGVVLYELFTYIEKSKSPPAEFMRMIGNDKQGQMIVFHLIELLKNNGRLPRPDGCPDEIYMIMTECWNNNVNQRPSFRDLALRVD

As a reminder, the IC50 is the midpoint of a concentration-inhibition curve. In the case of `CO[C@H]1C[C@@](CC#N)(n2cc(-c3cc(-c4c[nH]nc4CO)cc4nccn34)cn2)C1` [Example 463, [cis-1-(4-{7-[3-(hydroxymethyl)-1H-pyrazol-4-yl]imidazo[1,2-a]pyridin-5-yl}-1H-pyrazol-1-yl)-3-methoxycyclobutyl]acetonitrile], the IC50 at JAK3 (JAK Caliper enzyme assay) was over 10 µM; on JAK2 (JAK Caliper enzyme assay) it was over 10 µM; on TYK2 (JAK Caliper enzyme assay) it was 2.14 µM; on JAK1 (JAK Caliper enzyme assay), over 10 µM.
Regarding `CO[C@H]1C[C@](CC#N)(n2cc(-c3cc(-c4c[nH]nc4CO)cc4nccn34)cn2)C1` [Example 464, [trans-1-(4-{7-[3-(hydroxymethyl)-1H-pyrazol-4-yl]imidazo[1,2-a]pyridin-5-yl}-1H-pyrazol-1-yl)-3-methoxycyclobutyl]acetonitrile], the IC50 at JAK3 (JAK Caliper enzyme assay) was over 10 µM; at JAK2 (JAK Caliper enzyme assay), over 10 µM; at TYK2 (JAK Caliper enzyme assay), 4.66 µM; on JAK1 (JAK Caliper enzyme assay), over 10 µM.
On to `Cc1ncc(-c2cc(-c3cnn([C@]4(CC#N)C[C@H](C#N)C4)c3)n3ccnc3c2)[nH]1` [Example 465, cis-3-(cyanomethyl)-3-{4-[7-(2-methyl-1H-imidazol-5-yl)imidazo[1,2-a]pyridin-5-yl]-1H-pyrazol-1-yl}cyclobutanecarbonitrile], for which the IC50 is over 10 µM on JAK3 (JAK Caliper enzyme assay), 0.859 µM on JAK2 (JAK Caliper enzyme assay), 0.054 µM at TYK2 (JAK Caliper enzyme assay) and 6 µM at JAK1 (JAK Caliper enzyme assay).
Turning to `N#CC[C@]1(n2cc(-c3cc(-c4c[nH]nc4N)cc4nccn34)cn2)C[C@@H](C#N)C1` [Example 466, cis-3-{4-[7-(3-amino-1H-pyrazol-4-yl)imidazo[1,2-a]pyridin-5-yl]-1H-pyrazol-1-yl}-3-(cyanomethyl)cyclobutanecarbonitrile], the IC50 at JAK3 (JAK Caliper enzyme assay) was over 10 µM; at JAK2 (JAK Caliper enzyme assay) it was 1.26 µM; on TYK2 (JAK Caliper enzyme assay), 0.073 µM; at JAK1 (JAK Caliper enzyme assay) it was 2.71 µM.
For `N#CC[C@]1(n2cc(-c3cc(-c4nc(CO)cs4)cc4nccn34)cn2)C[C@@H](C#N)C1` [Example 467, cis-3-(cyanomethyl)-3-(4-{7-[4-(hydroxymethyl)-1,3-thiazol-2-yl]imidazo[1,2-a]pyridin-5-yl}-1H-pyrazol-1-yl)cyclobutanecarbonitrile] the same measures were over 10 µM, 0.518 µM, 0.051 µM and 1.6 µM.
`N#CC[C@]1(n2cc(-c3cc(-c4ccc(O)cc4)cc4nccn34)cn2)C[C@@H](C#N)C1` [Example 468, cis-3-(cyanomethyl)-3-{4-[7-(4-hydroxyphenyl)imidazo[1,2-a]pyridin-5-yl]-1H-pyrazol-1-yl}cyclobutanecarbonitrile]: the 50% inhibitory concentration (IC50) on JAK3 (JAK Caliper enzyme assay) was over 10 µM; at JAK2 (JAK Caliper enzyme assay), 1.22 µM; on TYK2 (JAK Caliper enzyme assay), 0.127 µM; at JAK1 (JAK Caliper enzyme assay), 1.53 µM.
Consider `N#CC[C@]1(n2cc(-c3cc(-c4ccc(N)nc4)cc4nccn34)cn2)C[C@@H](C#N)C1` [Example 469, cis-3-{4-[7-(6-aminopyridin-3-yl)imidazo[1,2-a]pyridin-5-yl]-1H-pyrazol-1-yl}-3-(cyanomethyl)cyclobutanecarbonitrile], for which the half-inhibitory concentration (IC50) was over 10 µM at JAK3 (JAK Caliper enzyme assay), 1.04 µM on JAK2 (JAK Caliper enzyme assay), 0.102 µM at TYK2 (JAK Caliper enzyme assay) and 2.39 µM at JAK1 (JAK Caliper enzyme assay).
Taken in the same sequence, the figures for `N#CC[C@]1(n2cc(-c3cc(-c4cccc(C(N)=O)n4)cc4nccn34)cn2)C[C@H](C#N)C1` [Example 470, 6-(5-{1-[cis-3-cyano-1-(cyanomethyl)cyclobutyl]-1H-pyrazol-4-yl}imidazo[1,2-a]pyridin-7-yl)pyridine-2-carboxamide] were over 10 µM, 0.147 µM, 0.025 µM and 0.62 µM.
Taken in the same sequence, the figures for `Cn1cc(-c2cc(-c3cnn([C@]4(CC#N)C[C@H](C#N)C4)n3)n3ccnc3c2)cn1` [Example 473, cis-3-(cyanomethyl)-3-{4-[7-(1-methyl-1H-pyrazol-4-yl)imidazo[1,2-a]pyridin-5-yl]-2H-1,2,3-triazol-2-yl}cyclobutanecarbonitrile] were over 10 µM, 1.93 µM, 0.09 µM and 6.47 µM.
For the compound `Cn1cc(-c2cc(-c3cnn(C4(CC#N)CC(C#N)C4)n3)n3ccnc3c2)cn1` (stereo not drawn) [Example 474, trans-3-(cyanomethyl)-3-{4-[7-(1-methyl-1H-pyrazol-4-yl)imidazo[1,2-a]pyridin-5-yl]-2H-1,2,3-triazol-2-yl}cyclobutanecarbonitrile], the concentration for half-maximal inhibition (IC50) was over 10 µM at JAK3 (JAK Caliper enzyme assay), over 10 µM at JAK2 (JAK Caliper enzyme assay), 1.12 µM at TYK2 (JAK Caliper enzyme assay) and over 10 µM at JAK1 (JAK Caliper enzyme assay).
On to `Cn1cc(-c2cc(-c3cnn(C4(CC#N)CN(CC(F)(F)F)C4)c3)n3ncnc3c2)cn1` [Example 475, [3-{4-[7-(1-methyl-1H-pyrazol-4-yl)[1,2,4]triazolo[1,5-a]pyridin-5-yl]-1H-pyrazol-1-yl}-1-(2,2,2-trifluoroethyl)azetidin-3-yl]acetonitrile], for which the IC50 on JAK3 (JAK Caliper enzyme assay) is over 10 µM; at JAK2 (JAK Caliper enzyme assay), 6.85 µM; on TYK2 (JAK Caliper enzyme assay) it was 0.462 µM; on JAK1 (JAK Caliper enzyme assay), 6.67 µM.
`Cn1cc(-c2cc(-c3ccn(C4(CC#N)CN(CC(F)(F)F)C4)n3)n3ncnc3c2)cn1` [Example 476, [3-{3-[7-(1-methyl-1H-pyrazol-4-yl)[1,2,4]triazolo[1,5-a]pyridin-5-yl]-1H-pyrazol-1-yl}-1-(2,2,2-trifluoroethyl)azetidin-3-yl]acetonitrile]: the half-maximal inhibitory concentration (IC50) was 7.28 µM on JAK3 (JAK Caliper enzyme assay), 0.486 µM on JAK2 (JAK Caliper enzyme assay), 0.48 µM on TYK2 (JAK Caliper enzyme assay) and 0.693 µM on JAK1 (JAK Caliper enzyme assay).
Regarding `Cn1cc(-c2cn3ncnc3c(-c3cnn(C4(CC#N)CN(CC#N)C4)c3)n2)cn1` [Example 477, 2,2′-(3-{4-[6-(1-methyl-1H-pyrazol-4-yl)[1,2,4]triazolo[1,5-a]pyrazin-8-yl]-1H-pyrazol-1-yl}azetidine-1,3-diyl)diacetonitrile], the IC50 is over 10 µM on JAK3 (JAK Caliper enzyme assay), 2.63 µM at JAK2 (JAK Caliper enzyme assay), 0.261 µM at TYK2 (JAK Caliper enzyme assay) and over 10 µM on JAK1 (JAK Caliper enzyme assay).
Regarding `Cn1cc(-c2cn3ncnc3c(-c3cnn(C4(CC#N)CN(S(C)(=O)=O)C4)c3)n2)cn1` [Example 478, [3-{4-[6-(1-methyl-1H-pyrazol-4-yl)[1,2,4,5-a]pyrazin-8-yl]-1H-pyrazol-1-yl}-1-(methylsulfonyl)azetidin-3-yl]acetonitrile], the half-inhibitory concentration (IC50) was over 10 µM at JAK3 (JAK Caliper enzyme assay), 2.19 µM at JAK2 (JAK Caliper enzyme assay), 0.281 µM at TYK2 (JAK Caliper enzyme assay) and over 10 µM on JAK1 (JAK Caliper enzyme assay).
In the case of `Cn1cc(-c2cc3nccnc3c(-c3cnn(C4(CC#N)CN(CC(F)(F)F)C4)c3)n2)cn1` [Example 479, [3-{4-[7-(1-methyl-1H-pyrazol-4-yl)pyrido[3,4-b]pyrazin-5-yl]-1H-pyrazol-1-yl}-1-(2,2,2-trifluoroethyl)azetidin-3-yl]acetonitrile], the IC50 came to 3.4 µM on JAK3 (JAK Caliper enzyme assay), 0.024 µM at JAK2 (JAK Caliper enzyme assay), 0.011 µM at TYK2 (JAK Caliper enzyme assay) and 0.169 µM at JAK1 (JAK Caliper enzyme assay).
As for `Cn1cc(-c2cc3nccnc3c(-c3cnn(C4(CC#N)CN(CC#N)C4)c3)n2)cn1` [Example 480, 2,2′-(3-{4-[7-(1-methyl-1H-pyrazol-4-yl)pyrido[3,4-b]pyrazin-5-yl]-1H-pyrazol-1-yl}azetidine-1,3-diyl)diacetonitrile], the IC50 at JAK3 (JAK Caliper enzyme assay) is 3.75 µM; at JAK2 (JAK Caliper enzyme assay), 0.017 µM; on TYK2 (JAK Caliper enzyme assay) it was 0.011 µM; at JAK1 (JAK Caliper enzyme assay), 0.145 µM.
For `Cn1cc(-c2cc3nccnc3c(-c3ccn(C4(CC#N)CN(CC#N)C4)n3)n2)cn1` [Example 481], the IC50 at JAK3 (JAK Caliper enzyme assay) was over 10 µM; at JAK2 (JAK Caliper enzyme assay), 3.53 µM; on TYK2 (JAK Caliper enzyme assay) it was 1.37 µM; at JAK1 (JAK Caliper enzyme assay), over 10 µM.
For the compound `Cn1cc(-c2cc3nccnc3c(-c3ccn(C4(CC#N)CN(CC(F)(F)F)C4)n3)n2)cn1` [Example 482, [3-{3-[7-(1-methyl-1H-pyrazol-4-yl)pyrido[3,4-b]pyrazin-5-yl]-1H-pyrazol-1-yl}-1-(2,2,2-trifluoroethyl)azetidin-3-yl]acetonitrile], the concentration for half-maximal inhibition (IC50) on JAK3 (JAK Caliper enzyme assay) is over 10 µM; on JAK2 (JAK Caliper enzyme assay), over 10 µM; on TYK2 (JAK Caliper enzyme assay) it was 3.79 µM; at JAK1 (JAK Caliper enzyme assay), over 10 µM.
For the compound “[3-(4-{7-[1-(oxetan-3-yl)-1H-pyrazol-4-yl]-1,6-naphthyridin-5-yl}-1H-pyrazol-1-yl)-1-(2,2,2-trifluoroethyl)azetidin-3- [Example 10]”, the 50% inhibitory concentration (IC50) is 2 µM at JAK3, 0.01 µM on JAK2, 0.02 µM on TYK2 and 0.086 µM at JAK1.
